Test results as given in patent publication US20040175691A1, “Use of the KCNQ2 and KCNQ3 genes for the discovery of agents useful in the treatment of neurological disorders” (priority 1998, published 2004).

Columns and labels:
Format in all cases: cell-based
KQT1 = biological target: T1, KQT1 (Homo sapiens, UniProt P51787); assay: Blockade of cloned KQT1 channel in oocytes
T1 construct: expressed in transfected cells; host or cells: oocytes (Xenopus)

hKCNQ2 potassium channel = biological target: T2, hKCNQ2 potassium channel (Homo sapiens, UniProt O43526, DEL417-446); assay: Membrane potential-evoked fluorescence (FLIPR, DiBAC) in HEK 293E cells stably expressing hKCNQ2; conditions: DiBAC-loaded HEK 293E hKCNQ2 cells, FIG. 6
T2 construct: Full-length hKCNQ2 cDNAs were amplified from adult human brain cDNA; expressed in transfected cells; host or cells: 293 EBNA (HEK 293E) cells, episomal plasmid pm3AR-hKCNQ2-1, hygromycin B selection
Description: The ability of KCNQ2 modulators to alter membrane potential was assessed using a fluorescence imaging plate reader (FLIPR). Cultured HEK 293E cells expressing hKCNQ2 channels are plated on poly-D-lysine-coated 96-well Costar microplates (#3603) at 300,000-750,000 cells/ml and allowed to reach confluence in DMEM (with 10% FBS and 250 ug/ml hygromycin B) at 37° C. and 5% CO2. After reaching confluence, growth medium is removed, replaced with a standard Hank's balanced salt solution containing 5 uM dibac(4)3, bis-oxonol (Molecular Probes # B-438) at 37° C. The cell plate is then placed in the recording chamber (equilibrated to 37° C.) of a fluorescence imaging plate reader (FLIPR; Molecular Devices) along with two drug plates (one containing standard Hank's balanced salt solution+dibac and the other containing standard Hank's balanced salt solution+dibac+test compound at various experimental concentrations).
These cells were loaded with the voltage-sensitive fluorescent dye, DiBAC, that distributes across cell membranes in a voltage-dependent manner. As cells depolarize (become more positive inside), more dye enters the cells and an increase in fluorescence occurs.
In FIG. 7, the relative effects of several M-current modulators on the flourescence of HEK 293E cells stably expressing the hKCNQ2 potassium channel is shown. These cells were loaded with the voltage-sensitive fluorescent dye, DiBAC, that distributes across cell membranes in a voltage-dependent manner. As cells depolarize, more dye enters the cells and an increase in fluorescence occurs. Conversely, as cells hyperpolarize (become more negative inside), more dye leaves the cells and a decrease in fluorescence occurs.

KCNQ2 = KCNQ2 (Homo sapiens, UniProt O43526, DEL417-446); assay: Perforated-patch voltage clamp of HEK 293E cells stably expressing hKCNQ2; set-up: Full-length hKCNQ2 cDNAs were amplified from adult human brain cDNA; expressed in transfected cells; host or cells: 293 EBNA (HEK 293E) cells, episomal plasmid pm3AR-hKCNQ2-1, hygromycin B selection; conditions: FIG. 5 (0.3 uM)
Description: To determine whether the hygromycin B resistant HEK 293E cells express functional hKCNQ2 channels, the presence of potassium currents was evaluated using the perforated-patch voltage-clamp technique. Briefly, cells growing on plastic Petri dishes or poly-D-lysine-coated glass coverslips in DMEM (with 10% FBS and 250 ug/ml hygromycin B) at 37° C. and 5% CO2 were removed from the incubator and allowed to reach room temperature. Growth medium was replaced with a bathing solution containing, in mM: 140 NaCl, 3 KC1, 2.5 CaCl2, 1 MgCl2, 10 HEPES, 10 dextrose, pH adjusted to 7.2-7.4 with NaOH and osmolarity adjusted to 305-310 mosm with water. […]
Stock solution(s) of test compound(s) was (were) prepared immediately before use. […] Generally, the stock solution is about 0.1 mM to about 100 mM in DMSO and the aliquot is about 5 to about 100 uL, but it is understood that the concentration and volumes are not limited to these ranges for one skilled in the art can readily determine the appropriate concentrations and volumes dependening on the activity of the compound in the assay and the sensitivity of detection. […]

T1 sequence (P51787 whole entry): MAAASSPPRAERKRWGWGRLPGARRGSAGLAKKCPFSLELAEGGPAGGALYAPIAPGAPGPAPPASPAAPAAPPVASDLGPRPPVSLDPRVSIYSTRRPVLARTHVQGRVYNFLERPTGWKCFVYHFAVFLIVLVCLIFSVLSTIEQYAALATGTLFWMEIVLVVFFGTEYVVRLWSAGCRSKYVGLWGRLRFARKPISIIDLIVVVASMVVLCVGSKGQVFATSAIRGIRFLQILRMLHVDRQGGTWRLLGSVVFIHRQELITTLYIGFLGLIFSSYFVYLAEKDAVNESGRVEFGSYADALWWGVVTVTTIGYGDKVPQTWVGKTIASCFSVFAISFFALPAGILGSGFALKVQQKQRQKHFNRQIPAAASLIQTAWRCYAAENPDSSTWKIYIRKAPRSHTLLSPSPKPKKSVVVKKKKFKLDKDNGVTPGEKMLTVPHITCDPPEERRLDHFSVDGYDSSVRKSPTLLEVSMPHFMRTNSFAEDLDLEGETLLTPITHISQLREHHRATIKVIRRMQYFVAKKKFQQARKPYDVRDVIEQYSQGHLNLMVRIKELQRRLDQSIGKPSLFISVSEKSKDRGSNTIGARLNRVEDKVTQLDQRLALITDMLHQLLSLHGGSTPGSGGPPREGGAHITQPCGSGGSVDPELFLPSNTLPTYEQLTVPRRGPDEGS

Row | SMILES | IC50 (KQT1) [µM] | Change in fluorescence (membrane depolarization) (hKCNQ2 potassium channel) | Block of hKCNQ2 current (KCNQ2)
1 | O=C1N(c2ccccc2)c2ccccc2C1(Cc1ccncc1)Cc1ccncc1 [Linopirdine, 3,3-bis(4-pyridinylmethyl)-1-phenylindolin-2-one] | 8.9 ± 0.9 | time- and concentration-dependent increase in flourescence | 
2 | O=C1c2ccccc2C(Cc2ccncc2)(Cc2ccncc2)c2ccccc21 [XE991, 10,10-bis(4-pyridinylmethyl)-9(10H)-anthracenone] |  |  | reversibly blocks hKCNQ2
